Laboratory results reported in patent publication US12565504B2, “Spirocyclic O-glycoprotein-2-acetamido-2-deoxy-3-d-glucopyranosidase inhibitors” (BIOGEN MA INC., priority 2019, dated 2026).

Tests used:
[1] = molecular target: Recombinant full length human OGA enzyme (Homo sapiens (Human), UniProt O60502); experiment: OGA Enzyme Inhibition Biochemical Assay; details: 1 nM OGA, 100 μM 4-MUGlcNAc, 90 minutes, pH 6.4
Procedure: Recombinant full length human OGA enzyme was purchased from Origene. 4-MUGlcNAc substrate was purchased from Sigma. All other reagents were purchased from Sigma or Fisher. Assay buffer consists of the McIlvaine buffer system, pH 6.4 (0.2M Na2HPO4 mixed with 0.1M citric acid) and 0.01% BSA. […] Reactions were incubated for 90 minutes at room temperature and quenched with 40 μl of 3M glycine, pH 10 and read on a Perkin Elmer Envision plate reader (Ex: 355 nm/Em: 460 nm). Compounds were tested with a 10-point dose-response starting from 20 μM with a 4-fold dilution. Data was fit using GraphPad Prism using a 4-parameter fit with variable slope.

OGA (S400 O-GLCNAC) = OGA (S400 O-GLCNAC) (Homo sapiens (Human), UniProt O60502); experiment: Cellular OGA-Tau MSD Assay; type: cell-based; details: HEK-293T cells transfected with OGT and Tau-V5; Tau-S400-GlcNAc MSD readout
Sequence of OGA (S400 O-GLCNAC) (O60502 whole entry): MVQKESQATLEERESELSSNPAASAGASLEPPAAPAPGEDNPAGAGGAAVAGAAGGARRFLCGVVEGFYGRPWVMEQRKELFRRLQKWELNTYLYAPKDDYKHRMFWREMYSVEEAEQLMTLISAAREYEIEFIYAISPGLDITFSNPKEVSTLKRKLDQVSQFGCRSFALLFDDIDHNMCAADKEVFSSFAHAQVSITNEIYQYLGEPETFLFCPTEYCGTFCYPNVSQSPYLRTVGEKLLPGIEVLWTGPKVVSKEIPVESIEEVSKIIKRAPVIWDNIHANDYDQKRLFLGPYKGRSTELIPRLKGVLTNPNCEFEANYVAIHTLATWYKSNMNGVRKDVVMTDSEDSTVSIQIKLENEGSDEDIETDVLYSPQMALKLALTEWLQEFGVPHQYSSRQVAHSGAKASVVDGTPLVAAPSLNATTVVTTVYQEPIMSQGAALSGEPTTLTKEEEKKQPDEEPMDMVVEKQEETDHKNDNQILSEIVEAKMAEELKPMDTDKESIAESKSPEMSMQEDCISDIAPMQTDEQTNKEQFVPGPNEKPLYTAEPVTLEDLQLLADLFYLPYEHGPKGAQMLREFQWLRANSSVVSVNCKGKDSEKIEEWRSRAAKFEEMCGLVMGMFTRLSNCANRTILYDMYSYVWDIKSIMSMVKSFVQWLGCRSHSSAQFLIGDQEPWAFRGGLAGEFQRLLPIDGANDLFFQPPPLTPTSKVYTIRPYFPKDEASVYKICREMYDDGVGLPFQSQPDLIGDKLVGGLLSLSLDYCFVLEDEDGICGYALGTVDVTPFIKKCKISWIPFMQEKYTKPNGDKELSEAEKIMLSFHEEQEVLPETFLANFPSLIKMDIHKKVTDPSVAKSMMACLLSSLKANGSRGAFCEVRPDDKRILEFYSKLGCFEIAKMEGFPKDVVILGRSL
Procedure: HEK-293T cells were transfected with OGT and Tau-V5 plasmids using Lipofectamine and grown overnight. Next day, the cells were collected and re-plated at 1×10^5 cells per well in 96 well plates. Cells were incubated for 4 hr at 37° C., before compounds were added at 1 uM, with 3-fold dilutions in a 10-point titration. Cell plates were incubated with compounds overnight at 37° C. The next day media was removed from wells by gentle aspiration and 120 ul of 1× Cell Lysis buffer mixed with protease and phosphatase cocktail added to each well. A freeze thaw was performed at −80° C., then mixed before transferring 50 μl to MSD plates coated with V5-tag antibody to capture Tau. MSD Plates were incubated overnight at 4° C., on a plate shaker. The following day, plates were washed and incubated with Tau-S400-GlcNAc antibody for 2 hr and then developed with rabbit Sulfo-tag antibody. Final read out was carried out on an MSD 600 reader. The data was analyzed using Graph Pad or Genedata, the data was normalized and % activity versus log of compound concentration was plotted. The ICso values were obtained from a 4 parameter fit.

Sequence of Recombinant full length human OGA enzyme (O60502 whole entry): as above

Compound	IC50 [1]	IC50 (OGA (S400 O-GLCNAC))
CC(=O)Nc1nc(F)c(CN2CCC3(Cc4ccncc4O3)C2)s1 (stereo not drawn) [Example 90, N-(5-((3H-spiro[furo[2,3-c]pyridine-2,3′-pyrrolidin]-1′-yl)methyl)-4-fluorothiazol-2-yl)acetamide]	120 nM	–
CC(=O)Nc1nc(F)c(CN2CCC3(C2)OCc2cnccc23)s1 (stereo not drawn) [Example 67, N-(5-((3H-Spiro[furo[3,4-c]pyridine-1,3′-pyrrolidin]-1′-yl)methyl)-4-fluorothiazol-2-yl)acetamide]	120 nM	1000 nM
CC(=O)Nc1nc(F)c(CN2C[C@]3(C[C@@H]2C)OCc2ccncc23)s1 (single isomer, unassigned) [Example 72-b]	110 nM	–
CC(=O)Nc1nc(F)c(CN2CCC[C@]3(C2)OCc2cnccc23)s1 (single isomer, unassigned) [Example 70-b]	850 nM	> 1000 nM
CC(=O)Nc1ncc(CN2C[C@@]3(Cc4ccccc4O3)C[C@@H]2C)s1 [Example 2, N-(5-(((2R,5′S)-5′-Methyl-3H-spiro[benzofuran-2,3′-pyrrolidin]-1′-yl)methyl)thiazol-2-yl)acetamide]	27 nM	41 nM
CC(=O)Nc1nc(F)c(CN2CCCC3(C2)OCc2c3ccnc2Cl)s1 (racemic) [Example 83, N-(5-((4-Chloro-3H-spiro[furo[3,4-c]pyridine-1,3′-piperidin]-1′-yl)methyl)-4-fluorothiazol-2-yl)acetamide]	5.9 nM	18.3 nM
CC(=O)Nc1ncc(CN2CC3(C[C@@H]2C)OCc2cccnc23)s1 (stereo partly drawn) [Example 62, N-(5-(((5′S)-5′-Methyl-5H-spiro[furo[3,4-b]pyridine-7,3′-pyrrolidin]-1′-yl)methyl)thiazol-2-yl)acetamide]	44 nM	73 nM
CC(=O)Nc1ncc(CN2CCCC3(CCc4ccccc43)C2)s1 (stereo not drawn) [Example 53, N-(5-((2,3-Dihydrospiro[indene-1,3′-piperidin]-1′-yl)methyl)thiazol-2-yl)acetamide]	73 nM	532 nM
CC(=O)Nc1nc(F)c(CN2C[C@]3(C[C@@H]2C)OCc2cnccc23)s1 (single isomer, unassigned) [Example 64-b]	170 nM	–
CC(=O)Nc1nc(F)c(CN2CCC3(Cc4cccnc4O3)C2)s1 (stereo not drawn) [Example 15, N-(5-((3H-Spiro[furo[2,3-b]pyridine-2,3′-pyrrolidin]-1′-yl)methyl)-4-fluorothiazol-2-yl)acetamide]	1700 nM	–
CC(=O)Nc1ncc(CN2CCCC3(C2)OCc2ccccc23)s1 (stereo not drawn) [Example 55, N-(5-((3H-Spiro[isobenzofuran-1,3′-piperidin]-1′-yl)methyl)thiazol-2-yl)acetamide]	24.5 nM	250 nM
COc1cnc2c(n1)CC1(C[C@H](C)N(Cc3sc(NC(C)=O)nc3F)C1)O2 (stereo partly drawn) [Example 50, N-(4-Fluoro-5-(((5′S)-2-methoxy-5′-methyl-7H-spiro[furo[2,3-b]pyrazine-6,3′-pyrrolidin]-1′-yl)methyl)thiazol-2-yl)acetamide]	2.3 nM	9 nM
COc1ccc2c(n1)C[C@]1(C[C@H](C)N(Cc3sc(NC(C)=O)nc3F)C1)O2 [Example 20, N-(4-Fluoro-5-(((2S,5′S)-5-methoxy-5′-methyl-3H-spiro[furo[3,2-b]pyridine-2,3′-pyrrolidin]-1′-yl)methyl)thiazol-2-yl)acetamide]	< 1 nM	4 nM
CC(=O)Nc1nc(F)c(CN2CCCC3(C2)OCc2cnccc23)s1 (racemic) [Example 69, N-(5-((3H-Spiro[furo[3,4-c]pyridine-1,3′-piperidin]-1′-yl)methyl)-4-fluorothiazol-2-yl)acetamide]	3.2 nM	13.8 nM
COc1cc2c(cn1)O[C@]1(C2)C[C@H](C)N(Cc2cnc(NC(C)=O)s2)C1 [Example 17, N-(5-(((2R,5′S)-5-Methoxy-5′-methyl-3H-spiro[furo[2,3-c]pyridine-2,3′-pyrrolidin]-1′-yl)methyl)thiazol-2-yl)acetamide]	< 1 nM	8 nM
CC(=O)Nc1nc(F)c(CN2CCC[C@@]3(C2)OCc2c3ccnc2Cl)s1 [Example 84-a, (R)—N-(5-((4-chloro-3H-spiro[furo[3,4-c]pyridine-1,3′-piperidin]-1′-yl)methyl)-4-fluorothiazol-2-yl)acetamide]	2.6 nM	8.5 nM
COc1nccc2c1COC21C[C@H](C)N(Cc2sc(NC(C)=O)nc2F)C1 (stereo partly drawn) [Example 77, N-(4-Fluoro-5-(((5′S)-4-methoxy-5′-methyl-3H-spiro[furo[3,4-c]pyridine-1,3′-pyrrolidin]-1′-yl)methyl)thiazol-2-yl)acetamide]	–	7 nM

Compound	IC50 [1]	IC50 (OGA (S400 O-GLCNAC))
CC(=O)Nc1nc(F)c(CN2CC3(C[C@@H]2C)OCc2ccccc23)s1 (stereo partly drawn) [Example 58, N-(4-Fluoro-5-(((5′S)-5′-methyl-3H-spiro[isobenzofuran-1,3′-pyrrolidin]-1′-yl)methyl)thiazol-2-yl)acetamide]	4.2 nM	14 nM
CC(=O)Nc1nc(F)c(CN2C[C@@]3(Cc4cc(NC5CC5)ncc4O3)C[C@@H]2C)s1 [Example 31, N-(5-(((2R,5′S)-5-(Cyclopropylamino)-5′-methyl-3H-spiro[furo[2,3-c]pyridine-2,3′-pyrrolidin]-1′-yl)methyl)-4-fluorothiazol-2-yl)acetamide]	< 1 nM	15 nM
CC(=O)Nc1nc(F)c(CN2CCCC3(C2)OCc2cccnc23)s1 (stereo not drawn) [Example 61, N-(5-((5H-Spiro[furo[3,4-b]pyridine-7,3′-piperidin]-1′-yl)methyl)-4-fluorothiazol-2-yl)acetamide]	29 nM	–
CC(=O)Nc1nc(F)c(CN2C[C@@]3(Cc4ccncc4O3)C[C@@H]2C)s1 [Example 9, N-(4-Fluoro-5-(((2R,5′S)-5′-methyl-3H-spiro[furo[2,3-c]pyridine-2,3′-pyrrolidin]-1′-yl)methyl)thiazol-2-yl)acetamide]	1 nM	12 nM
COc1cc2c(cn1)O[C@]1(C2)C[C@H](C)N(Cc2sc(NC(C)=O)nc2F)C1 [Example 16, N-(4-Fluoro-5-(((2R,5′S)-5-methoxy-5′-methyl-3H-spiro[furo[2,3-c]pyridine-2,3′-pyrrolidin]-1′-yl)methyl)thiazol-2-yl)acetamide]	< 1 nM	2 nM
CC(=O)Nc1ncc(CN2CCC3(Cc4cnccc4O3)C2)s1 (stereo not drawn) [Example 13, N-(5-((3H-Spiro[furo[3,2-c]pyridine-2,3′-pyrrolidin]-1′-yl)methyl)thiazol-2-yl)acetamide]	130 nM	796 nM
CC(=O)Nc1nc(F)c(CN2CCCC3(C2)OCc2cncnc23)s1 (stereo not drawn) [Example 88, N-(5-((5H-Spiro[furo[3,4-d]pyrimidine-7,3′-piperidin]-1′-yl)methyl)-4-fluorothiazol-2-yl)acetamide]	20.8 nM	90.3 nM
CC(=O)Nc1ncc(CN2CCC3(Cc4cc(Cl)ccc4O3)C2)s1 (stereo not drawn) [Example 5, N-(5-((5-Chloro-3H-spiro[benzofuran-2,3′-pyrrolidin]-1′-yl)methyl)thiazol-2-yl)acetamide]	150 nM	–
CC(=O)Nc1ncc(CN2C[C@]3(C[C@@H]2C)OCc2ccncc23)s1 [Example 71-b, N-(5-(((3R,5′S)-5′-methyl-1H-spiro[furo[3,4-c]pyridine-3,3′-pyrrolidin]-1′-yl)methyl)thiazol-2-yl)acetamide]	260 nM	–
CC(=O)Nc1nc(F)c(CN2C[C@@]3(C[C@@H]2C)OCc2ccncc23)s1 (single isomer, unassigned) [Example 72-a]	30 nM	–
CC(=O)Nc1nc(F)c(CN2CCC3(Cc4cc(Cl)ccc4O3)C2)s1 (stereo not drawn) [Example 6, N-(5-((5-Chloro-3H-spiro[benzofuran-2,3′-pyrrolidin]-1′-yl)methyl)-4-fluorothiazol-2-yl)acetamide]	140 nM	–
CC(=O)Nc1ncc(CN2CCC3(Cc4cccnc4O3)C2)s1 (stereo not drawn) [Example 14, N-(5-((3H-Spiro[furo[2,3-b]pyridine-2,3′-pyrrolidin]-1′-yl)methyl)thiazol-2-yl)acetamide]	3800 nM	–
CC(=O)Nc1ncc(CN2C[C@@]3(C[C@@H]2C)OCc2ccncc23)s1 [Example 71-a, N-(5-(((3S,5′S)-5′-Methyl-1H-spiro[furo[3,4-c]pyridine-3,3′-pyrrolidin]-1′-yl)methyl)thiazol-2-yl)acetamide]	150 nM	–
CC(=O)Nc1ncc(CN2C[C@@]3(C[C@@H]2C)OCc2cnccc23)s1 (single isomer, unassigned) [Example 65-a]	24 nM	–
CC(=O)Nc1ncc(CN2C[C@]3(C[C@@H]2C)OCc2cnccc23)s1 (single isomer, unassigned) [Example 65-b]	440 nM	–
CC(=O)Nc1nc(F)c(CN2CC3(C[C@@H]2C)OCc2ncccc23)s1 (stereo partly drawn) [Example 79, N-(4-Fluoro-5-(((5′S)-5′-methyl-7H-spiro[furo[3,4-b]pyridine-5,3′-pyrrolidin]-1′-yl)methyl)thiazol-2-yl)acetamide]	–	5 nM
